Measurements reported in US7799913B2, “Carbonylbenzoxazine compounds for enhancing glutamatergic synaptic responses” (Cortex Pharmaceuticals, Inc., priority 2001, dated 2010).

Legend:
[1] = eight-arm radial maze task for cognition/memory enhancement; type: in vivo
Text: This task has been described previously (Staubli et al., PNAS 91:777-781 (1994)) and Lynch and Rogers, PCT Pubn. No. WO 94/02475).
This test has been described previously by Staubli et al., PNAS 91:777-781 (1994) and Lynch and Rogers, U.S. Pat. No. 5,747,492.

AMPA receptor = test: steady-state current induced by glutamate in cortical neurons in primary culture; type: cell-based, rat
Method: (§1) The physiological effects of invention compounds were tested in vitro on primary cultures of rat cortical neurons as described by Hamill, O P, et al. in Pflügers Arch 391: 85-100 (1981) or on slices of rat hippocampus according to the following procedure. Excitatory responses (field EPSPs) were measured in hippocampal slices, which were maintained in a recording chamber continuously perfused with artificial cerebrospinal fluid (ACSF). During a 15-30 minute interval, the perfusion medium was switched to one containing various concentrations of the test compounds. Responses collected immediately before and at the end of drug perfusion were superimposed in order to calculate the percent increase in EPSP amplitude.

AMPA receptors = test: field EPSP amplitude in field CA1 of rat hippocampal slice; type: cell-based
Text: The field EPSP, (excitatory post-synaptic potential) recorded in field CA1 after stimulation of CA3 axons is known to be mediated by AMPA receptors, which are present in the synapses (Kessler et al., Brain Res. 560: 337-341 (1991)). Drugs that selectively block the receptor selectively block the field EPSP (Muller et al., Science, supra). […] These effects are mirrored in the field EPSP (see, for example, Staubli et al., Psychobiology, supra; Xiao et al., Hippocampus, supra; Staubli et al., Hippocampus 2: 4958 (1992)).
To obtain the data shown in Table I, a bipolar nichrome stimulating electrode was positioned in the dendritic layer (stratum radiatum) of the hippocampal subfield CA1 close to the border of subfield CA3, as described in Example 64. Current pulses (0.1 msec) through the stimulating electrode activate a population of the Schaffer-commissural (SC) fibers, which arise from neurons in the subdivision CA3 and terminate in synapses on the dendrites of CA1 neurons. Activation of these synapses causes them to release the transmitter glutamate. Glutamate binds to post-synaptic AMPA receptors, which then transiently open an associated ion channel and permit a sodium current to enter the postsynaptic cell. This current results in a voltage in the extracellular space (the field EPSP), which is recorded by a high impedance recording electrode positioned in the middle of the stratum radiatum of CA1.
The intensity of the stimulation current was adjusted to produce half-maximal EPSPs (typically about 1.5-2.0 mV). Paired stimulation pulses were given every 40 sec with an interpulse interval of 200 msec, as described further in Example 64.
Hippocampal slices were maintained in a recording chamber continuously perfused with artificial cerebrospinal fluid (ACSF). During 15-30 minute intervals, the perfusion medium was switched to one containing various concentrations of the test compounds. Responses collected immediately before and at the end of drug perfusion were superimposed in order to calculate the percent increase in EPSP amplitude.
as §1
To conduct these tests, the hippocampus was removed from anesthetized, 2 month old Sprague-Dawley rats and in vitro slices (400 μm thick) were prepared and maintained in an interface chamber at 35° C. using conventional techniques [see, for example, Dunwiddie and Lynch, J. Physiol. 276: 353-367 (1978)]. The chamber was constantly perfused at 0.5 mL/min with ACSF containing (in mM): NaCl 124, KCl 3, KH2PO4 1.25, MgSO4 2.5, CaCl2 3.4, NaHCO3 26, glucose 10 and L-ascorbate 2. A bipolar nichrome stimulating electrode was positioned in the dendritic layer (stratum radiatum) of the hippocampal subfield CA1 close to the border of subfield CA3.
Current pulses (0.1 msec) through the stimulating electrode activate a population of the Schaffer-commissural (SC) fibers, which arise from neurons in the subdivision CA3 and terminate in synapses on the dendrites of CA1 neurons. Activation of these synapses causes them to release the transmitter glutamate. Glutamate binds to the post-synaptic AMPA receptors, which then transiently open an associated ion channel and permit a sodium current to enter the postsynaptic cell. […]

Row | Compound | potency relative to CX516 (times more potent) ([1]; eight-arm radial maze MEDC) | MEDC: Minimum Effective Dose that produces a statistically significant improvement in behavior ([1]; eight-arm radial maze task) [mg/kg] | EC2X: concentration of modulator required to double the steady state current (AMPA receptor; 300 μM glutamate on cultured neurons) [µM] | EC2x: concentration of compound that causes at least a doubling of the steady-state current (AMPA receptor; cortical neurons in primary culture, 300 μM glutamate) [µM] | Amp: concentration of compound that causes a 10% increase in the amplitude of the field EPSP (AMPA receptors; field CA1 of rat hippocampal slice, estimated by interpolation or extrapolation) [µM] | AMP: concentration of modulator that increases the amplitude of the fEPSP by 10% (AMPA receptors; rat hippocampal slice) [µM]
1 | O=C1c2cc3c(cc2OC2CCCN12)C(=O)N1CCCC1O3 [Example 1, (R,S), (R,S)-3aH,9aH-pyrrolidino[2,1-b]pyrrolidino[2″,1″-2′,3′](1,3-oxazino)[5′,6′-2,1]benzo[4,5-e]1,3-oxazaperhydroine-6,12-dione] | 250 | – | – | – | – | –
2 | O=C(c1ccc2nccnc2c1)N1CCCCC1 [CX516, 1-(quinoxaline-6-ylcarbonyl)piperidine, reference compound] | – | 12.5 | 830 | 830 | 80 | 80
